Measurements as given in patent publication US8420649B2, “Pyrido[3,2-d]pyridazine-2(1H)-one compounds as p38 modulators and methods of use thereof” (Amgen Inc., priority 2008, dated 2013).
“And” between values parts separate entries of the source, which are not always exact repeats. Equal values may be shown once. Read-outs that look alike come from different tables or passages of the source.

Legend:
human p38α = human p38α (Homo sapiens, UniProt Q16539); experiment: Purified and activated recombinant human p38α HTRF kinase assay; type: biochemical; conditions: recombinant human p38α 1 nM, 50 μM ATP, read-out: p38a IC50
Method: Purified and Activated Recombinant Human p38α Assay Kinase Reaction Buffer: Kinase reaction buffer for p38α HTRF assays consists of 50 mM Tris-pH 7.5, 5 mM MgCl2, 0.1 mg/mL BSA, 100 μM Na3VO4 and 0.5 mM DTT. HTRF Detection Buffer: HTRF detection buffer contains 100 mM HEPES-pH 7.5, 100 mM NaCl, 0.1% BSA, 0.05% Tween-20, and 10 mM EDTA. Serial Dilution of Compounds: Compounds were dissolved in 100% DMSO and serially diluted (3 fold, 10 point) in a polypropylene 96-well microtiter plate (drug plate). The final starting concentration of compounds in the p38α enzymatic assays was 1 μM. […] Kinase Reaction: […] See table below for actual concentrations. In the absence of substrate, the background was measured as LO control. The reaction was allowed to incubate for 1 hour at RT. Assay Reagent Concentrations: […] HTRF Detection: […] After 60 minutes incubation at room temperature, the assay plate was read in a Discovery Plate Reader. The wells were excited with coherent 320 nm light and the ratio of delayed ([…] post excitation) emissions at […] (native europium fluorescence) and 665 nm (europium fluorescence transferred to allophycocyanin-an index of substrate phosphorylation) was determined (Park et al, 1999). Data Analysis: The proportion of substrate phosphorylated in the kinase reaction in the presence of compound compared with that phosphorylated in the presence of DMSO vehicle alone (HI control) was calculated using the formula: % control (POC)=(compound-average LO)/(average HI-average LO)*100. […] The inhibition constant (Ki) of the inhibitor was estimated from the IC50 (compound concentration at the point of inflection C) using the Cheng-Prussof equation: […] All results were expressed as the mean±the standard error of the mean.

[1] = tested on: IL-1β, IL-6 and TNF-α production by LPS-activated PBMC; experiment: Lipopolysaccharide-activated PBMC cytokine production assay; type: cell-based; conditions: Homo sapiens, read-out: IC50 in the whole blood PMBC assay
Method: Lipopolysaccharide-Activated PBMC Cytokine Production Assay
Test compounds were evaluated in vitro for the ability to inhibit the production of IL-1β, IL-6, and TNF-α by PBMC activated with bacterial lipopolysaccharide (LPS). Fresh leukocytes were obtained from a local blood bank, and peripheral blood mononuclear cells (PBMCs) were isolated by density gradient centrifugation on Ficol-Paque Plus (Pharmacia).
Preparation of Test Compound Stock Solutions
All reagents were prepared in RPMI 1640+10% v/v human AB serum+1× Pens/Strep/Glu (assay medium). Test compounds were dissolved in 100% DMSO and serially diluted in 96-well polypropylene round bottom micro titer plates (drug plate). Serial dilutions were then diluted 1:250 into assay medium to a 4× working concentration. Compound serial dilutions were half-log, 10 point titrations with a final starting concentration of 1 μM.
Treatment of Cells with Test Compounds and Activation with Lipopolysaccharide
LPS was prepared to a 4× concentration in assay medium. 100 μl of PBMC (1×10^6 cells/ml) were plated in a 96-well polystyrene flat bottom micro titer tissue culture plate and incubated with 50 μl of 4× compound serial dilution for 1 hour at 37° C., 5% CO2 in a tissue culture incubator. 50 μl 4×LPS or control was added and the plates were incubated at 37° C., 5% CO2 in a tissue culture incubator for 18 hours. The final DMSO concentration was 0.1%. The total volume was 200 μL. The final LPS concentration was 100 ng/mL. After 18 hours culture supernatants were removed and IL-1β, IL-6, and TNF-α presence in the supernatants was quantified using MSD ECL based technology.
20 μL of culture supernatant were added to MSD plates, and incubated for one hour at room temperature. 20 μL of detection antibody diluted in antibody diluent (1 μg/mL), and 110 μL of 2× Read Buffer P was added, and incubated for one hour at RT. Electrochemiluminescence was measured using the SECTOR HTS Imager (MSD, Gaithersburg, Md.).
Compound IC50 values were calculated as follows: The proportion of cytokine production in the presence of compound compared to the cytokine production in the presence of the DMSO vehicle alone (Hi control) was calculated using the formula: Percent Control (POC)=(compound−average Lo)/(average Hi−average Lo)*100.

[2] = tested on: TNF-α production by LPS-activated THP1 cells; experiment: Lipopolysaccharide-activated THP1 cell TNF production assay; type: cell-based; conditions: Homo sapiens, THP-1, 3 hours, read-out: IC50 in the THP-1 cellular TNF production assay
Method: Lipopolysaccharide-activated THP1 Cell TNF Production Assay
THP1 cells were resuspended in fresh THP1 media (RPMI 1640, 10% heat-inactivated FBS, 1×PGS, 1×NEAA, plus 30 μM βME) at a concentration of 1.5×10^6 cells per mL. One hundred microliters of cells per well were plated in a polystyrene 96-well tissue culture plate. 1.5 micrograms per mL of bacterial LPS was prepared in THP1 media and transferred to the first 11 columns of a 96-well polypropylene plate. Column 12 contained only THP1 media for the LO control. Compounds were dissolved in 100% DMSO and serially diluted 3 fold in a polypropylene 96-well microtiter plate (drug plate). Columns 6 and 12 were reserved as controls (HI controls and LO controls respectively) and contained only DMSO. […] Fifty microliters of conditioned media was transferred to a 96-well MULTI-ARRAY™ 96-well small spot plate—custom coated with MAB610 containing 100 μL of 2× Read Buffer P supplemented with 0.34 nM AF210NA polyclonal Ab labeled with ruthenium (MSD-Sulfo-TAG™—NHS ester). After an overnight incubation at room temperature with shaking, the reaction was read on the Sector Imager™ 6000. […] The amount of secreted TNF-α in the presence of test compounds compared with that in the presence of DMSO vehicle alone (HI control) was calculated using the formula: % control (POC)=(cpd−average LO)/(average HI−averageLO)*100. […]

[3] = tested on: TNF-α induced IL-8 production in human whole blood; experiment: Inhibition of TNF-α induced IL-8 in 50% human whole blood; type: cell-based
Method: Inhibition of TNF-α Induced IL-8 in 50% Human Whole Blood Test compounds were evaluated in vitro for the ability to inhibit the production of secreted IL-8 by whole blood activated with TNF-α. Fresh human whole blood was obtained from healthy, non-medicated volunteers in sodium heparin tubes. Compound Dilution—Assay Procedure […] Cytokine Measurement Cytokines are measured on antibody (Ab) sandwich ECL based 96-well detection plates. 20 ul of supernatant are added to plate and plate is sealed and shaken at RT for 1 hour. 130 ul of detection Ab cocktail is added and plates are sealed and shaken for 1 hour in the dark at RT. Plates are read on MSD Sector HTS instrument.

[4] = Homo sapiens, read-out: WB TNF/IL8 IC50, TNF-α (1 nM) induced IL-8, 50% human whole blood, 16-18 hours

Sequence of human p38α (Q16539 whole entry): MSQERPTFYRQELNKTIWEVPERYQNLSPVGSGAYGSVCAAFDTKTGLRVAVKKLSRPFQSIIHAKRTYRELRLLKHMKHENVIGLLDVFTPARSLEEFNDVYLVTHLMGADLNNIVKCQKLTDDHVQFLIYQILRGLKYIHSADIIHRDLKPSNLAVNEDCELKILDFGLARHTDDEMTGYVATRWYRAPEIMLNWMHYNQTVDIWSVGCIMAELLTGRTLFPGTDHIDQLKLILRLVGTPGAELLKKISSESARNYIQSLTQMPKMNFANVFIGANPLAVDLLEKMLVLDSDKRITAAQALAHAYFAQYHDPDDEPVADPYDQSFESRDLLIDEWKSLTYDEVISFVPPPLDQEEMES

Row | Compound | IC50 (human p38α) | IC50 ([1]; 18 h) [nM] | IC50 [2] [nM] | IC50 [3, 4] [nM] | IC50 ([3]; read-out: WB TNF/IL8 IC50, TNF-α (1 nM) induced IL-8, 50% human whole blood, 16-18 hours) [nM] | IC50 ([1]; LPS 100 ng/mL, 18 hours) [nM]
1 | Cn1c(=O)c(Nc2ccc(F)cc2F)cc2cnnc(-c3ccc(F)cc3F)c21 [Example 1, 8-(2,4-difluorophenyl)-3-(2,4-difluorophenylamino)-1-methylpyrido[3,2-d]pyridazin-2(1H)-one] | 0.8 nM | ≤ 1000 | ≤ 1000 | – | – | –
2 | Cn1c(=O)c(Oc2ccc(F)cc2)cc2cnnc(-c3ccc(F)cc3F)c21 [Example 2, 8-(2,4-difluorophenyl)-3-(4-fluorophenoxy)-1-methylpyrido[3,2-d]pyridazin-2(1H)-one] | ≤ 125 nM and 102 nM | ≤ 1000 | ≤ 1000 | ≤ 300 | 273 | –
3 | Cn1c(=O)c(Nc2ccc(F)cc2F)cc2cnnc(-c3ccc(C(F)(F)F)cc3F)c21 [Example 3, 3-(2,4-difluorophenylamino)-8-(2-fluoro-4-(trifluoromethyl)phenyl)-1-methylpyrido[3,2-d]pyridazin-2(1H)-one] | 2.3 nM | ≤ 1000 | – | – | – | –
4 | Cn1c(=O)c(Nc2ccc(F)cn2)cc2cnnc(-c3ccc(F)cc3F)c21 [Example 4, 8-(2,4-difluorophenyl)-3-((5-fluoro-2-pyridinyl)amino)-1-methylpyrido[2,3-d]pyridazin-2(1H)-one] | 327 nM | – | – | > 2500 | – | –
5 | CCn1c(=O)c(Nc2ccc(F)cc2F)cc2cnnc(-c3ccc(F)cc3F)c21 [Example 5, 8-(2,4-difluorophenyl)-3-((2,4-difluorophenyl)amino)-1-ethylpyrido[2,3-d]pyridazin-2(1H)-one] | 0.2 nM | ≤ 1000 | – | – | – | –
6 | Cn1c(=O)c(Oc2ccc(F)cc2F)cc2cnnc(-c3ccccc3Cl)c21 [Example 6, 8-(2-chlorophenyl)-3-(2,4-difluorophenoxy)-1-methylpyrido[2,3-d]pyridazin-2(1H)-one] | 0.6 nM | ≤ 1000 | – | – | – | –
7 | Cn1c(=O)c(Nc2ncc(F)cc2F)cc2cnnc(-c3ccc(F)cc3F)c21 [Example 7, 8-(2,4-difluorophenyl)-3-((3,5-difluoro-2-pyridinyl)amino)-1-methylpyrido[2,3-d]pyridazin-2(1H)-one] | 111 nM | – | – | > 2500 | – | –
8 | Cc1cc(S(C)(=O)=O)ccc1-c1nncc2cc(Nc3ccc(F)cc3F)c(=O)n(C)c12 [Example 8, 3-((2,4-difluorophenyl)amino)-1-methyl-8-(2-methyl-4-(methylsulfonyl)phenyl)pyrido[2,3-d]pyridazin-2(1H)-one] | 1.7 nM | ≤ 1000 | – | – | – | –
9 | Cc1cc(S(C)(=O)=O)ccc1-c1nncc2cc(Oc3ccc(F)cc3F)c(=O)n(C)c12 [Example 9, 3-(2,4-difluorophenoxy)-1-methyl-8-(2-methyl-4-(methylsulfonyl)phenyl)pyrido[2,3-d]pyridazin-2(1H)-one] | 11 nM | – | – | – | – | ≤ 1000
10 | Cn1c(=O)c(Nc2ccc(F)cc2F)cc2cnnc(-c3ccc(S(C)(=O)=O)cc3Cl)c21 [Example 10, 8-(2-chloro-4-(methylsulfonyl)phenyl)-3-((2,4-difluorophenyl)amino)-1-methylpyrido[2,3-d]pyridazin-2(1 H)-one] | 0.8 nM | – | – | – | – | ≤ 1000
11 | Cn1c(=O)c(Nc2ccc(F)cc2)cc2cnnc(-c3ccc(F)cc3F)c21 [Example 11, 8-(2,4-difluorophenyl)-3-((4-fluorophenyl)amino)-1-methylpyrido[2,3-d]pyridazin-2(1H)-one] | 2.2 nM | – | – | – | – | ≤ 1000
12 | Cn1c(=O)c(Oc2ccc(F)cc2F)cc2cnnc(-c3ccc(F)cc3F)c21 [Example 12, 3-(2,4-difluorophenoxy)-8-(2,4-difluorophenyl)-1-methylpyrido[2,3-d]pyridazin-2(1H)-one] | 8.4 nM | – | – | – | – | ≤ 1000
